Results reported in patent US10328161B2, “Luciferin derivatives from bicyclic reactants and aminothiol derivatives and methods of use thereof” (The Regents of the University of California, priority 2012, dated 2019).

Assays:
PC3M-luc cells [1] = assay: Comparison of in situ luciferin formation and luciferin in PC3M-luc cells (intact and lysed); type: cell-based
Procedure: (§1) A Xenogen IVIS Spectrum instrument (Caliper Life Sciences, Hopkinton, Mass.) was used for bioluminescent imaging in all cellular experiments. PC3M-luc cells (kindly provided by Chris Contag, Stanford University) were cultured in Dulbecco's Modified Eagle Medium (DMEM) containing 10% Fetal Bovine Serum (FBS). Prior to assaying, cells were passed and plated (1.3-1.5×10^4 cells/well) in black 96-well plates with clear bottoms (Becton Dickinson and Company, Franklin Lakes, N.J.). Once the cells were ca. 95% confluent, reagents were added for bioluminescent assays.
PC3M-luc cells prepared as described above were washed with HBSS (25 mM glucose) prior to addition of HCBT and D-cysteine (0-500 μM, 1% DMSO) or luciferin (0-500 μM, 1% DMSO) in HBSS (25 mM glucose). For experiments with lysed cells, 100 μL Glo lysis buffer (Promega, Madison, Wis.) was incubated with the PC3M-luc cells for 5 min prior to addition of HCBT and D-cysteine or luciferin. The plates were immediately imaged for 2 h to determine the peak bioluminescent signal produced.

FVB-luc^+ mice [2] = assay: Comparison of in situ luciferin formation and luciferin in mice; type: in vivo; settings: 0.05 μmol luciferin IP
Excerpt: A Xenogen IVIS Spectrum instrument (Caliper Life Sciences, Hopkinton, Mass.) was used for bioluminescent imaging in all animal experiments. Mice were anesthetized prior to injection and during imaging via inhalation of isoflurane. Phosphate Buffered Saline (PBS) was purchased from Thermo Fisher Scientific (Waltham, Mass.), and saline (0.9%) was made from sodium chloride and Millipore water. Isoflurane was purchased from Phoenix Pharmaceuticals, Inc. (St. Joseph, Mo.), and pharmaceutical grade DMSO was purchased from Sigma-Aldrich (St. Louis, Mo.). Medical grade oxygen was purchased from Praxair (Danbury, Conn.). FVB-luc^+ (FVB-Tg(CAG-luc,-GFP)L2G85Chco/J) mice were bred at UC Berkeley, and were single or group-housed on a 12:12 light-dark cycle at 22° C. with free access to food and water. All studies were approved and performed according to the guidelines of the Animal Care and Use Committee of the University of California, Berkeley. Unshaven, male FVB-luc^+ mice were anesthetized with isoflurane and injected IP with D-[…].05 or 0.5 μmol, in 20 μL of PBS) or vehicle (20 μL PBS). After 2 min, mice were injected IP with HCBT (0.05 or 0.5 μmol in 50 μL of 1:1 DMSO:PBS) or luciferin (0.05 μmol in 50 μL of 1:1 DMSO:PBS). Following injections, mice were imaged with an IVIS Spectrum.

[3] = Selectivity assay for PCL-2: response to H2O2; type: biochemical; settings: PCL-2 5 μM, H2O2 100 μM, 5-60 min, then D-cysteine and luciferase
Procedure: (§2) Millipore water was used to prepare all aqueous solutions. Luciferase (100 μg/mL) in 50 mM Tris buffer, pH 7.4, with 10 mM MgCl2, 0.1 mM ZnCl2, and 2 mM ATP was added to selectivity assay samples (described below) to determine the relative amount of luciferin formed during incubation. Measurements for bioluminescent assays were performed at 37° C. and were recorded using a Molecular Devices SpectraMax M2 plate reader (Sunnyvale, Calif.). Samples for bioluminescent measurements were placed in white, opaque 96-well plates, which were purchased from Corning Inc. (Corning, N.Y.). ATP was purchased from MP Biomedicals (Solon, Ohio) or Sigma-Aldrich (St. Louis, Mo.), and luciferase was purchased from Promega (Madison, Wis.). Caspase enzymes were purchased from Sigma-Aldrich (St. Louis, Mo.), and caspase inhibitors were purchased from MP Biomedicals (Solon, Ohio).
(§3) Various ROS (100 μM) were administered to PCL-2 or HCBT (5 μM) in Tris buffer (50 mM, pH 7.4) with or without 10 mM MgCl2 and 0.1 mM ZnCl2. […] After an additional 15 min incubation, 100 μL of a Tris buffer (50 mM, pH 7.4) containing luciferase (100 μg/mL), 10 mM MgCl2, 0.1 mM ZnCl2, and 2 mM ATP was added to 100 μL of the PCL-2 or HCBT solutions and the bioluminescent signal was detected.

[4] = Selectivity assay for PCL-2: panel of various ROS; type: biochemical
Procedure: as §2, §3

[5] = Kinetic analysis of the PCL-2 and H2O2 reaction; type: physicochemical; settings: PCL-2 10 μM, H2O2 1, 2.5 or 5 mM, Tris buffer pH 8.5
Procedure: H2O2 (1, 2.5, or 5 mM) was added to PCL-2 (10 μM) in Tris buffer (pH 8.5) and absorbance measurements were recorded every 15-30 seconds over 5-20 minutes to determine the second order rate constant for the reaction. Measurements were taken at pH 8.5 to distinguish the HCBT peak, which shifts from 321 nm to 379 nm when it is deprotonated, from the PCL-2 peak (321 nm).

[6] = Concentration dependence of PCL-2 in aqueous solution; type: biochemical
Procedure: as §2
PCL-2 was incubated in Tris buffer (50 mM, pH 7.4) with various concentrations of H2O2 for 60 min prior to the addition of catalase (0.4 mg/mL), dithiothreitol (1 mM) and D-cysteine (20 μM). After an additional 15 min incubation, 100 μL of a Tris buffer (50 mM, pH 7.4) containing luciferase (100 μg/mL), 10 mM MgCl2, 0.1 mM ZnCl2, and 2 mM ATP was added to 100 μL of the PCL-2 solutions and the bioluminescent signal was detected.

PC3M-luc cells [7] = assay: Concentration dependence of PCL-2 with PC3M-luc cells; type: cell-based; settings: PCL-2 25 μM, D-cysteine 25 μM
Procedure: as §1
The medium was removed from PC3M-luc cells prepared as described above, and PCL-2 (25 μM, 2.5% final DMSO concentration), D-cysteine (25 μM), and H2O2 (0-100 μM final concentrations) in DMEM (-FBS) were added. The plate was immediately imaged for 2 h to determine the peak bioluminescent signal produced from PCL-2.

[8] = Exogenous H2O2 experiments in mice; type: in vivo
Excerpt: (§4) A Xenogen IVIS Spectrum instrument (Caliper Life Sciences, Hopkinton, Mass.) was used for bioluminescent imaging in all animal experiments. Mice were anesthetized prior to injection and during imaging via inhalation of isoflurane. Phosphate Buffered Saline (PBS) was purchased from Thermo Fisher Scientific (Waltham, Mass.), and saline (0.9%) was made from sodium chloride and Millipore water. Isoflurane was purchased from Phoenix Pharmaceuticals, Inc. (St. Joseph, Mo.), and pharmaceutical grade DMSO was purchased from Sigma-Aldrich (St. Louis, Mo.). Medical grade oxygen was purchased from Praxair (Danbury, Conn.).
(§5) FVB-luc^+ (FVB-Tg(CAG-luc,-GFP)L2G85Chco/J) mice were bred at UC Berkeley, and were single or group-housed on a 12:12 light-dark cycle at 22° C. with free access to food and water. All studies were approved and performed according to the guidelines of the Animal Care and Use Committee of the University of California, Berkeley.
Unshaven, male FVB-luc^+ mice were anesthetized with isoflurane and injected IP with a mixture of PCL-2 and D-cysteine (0.05 μmol each, in 50 μL of 1:1 DMSO:PBS), followed immediately by an IP injection of H2O2 (0-4.5 μmol in 100 μL of PBS). Control mice were injected IP with a mixture of HCBT and D-cysteine (0.01 μmol each, in 50 μL of 1:1 DMSO:PBS) immediately prior to H2O2 (4.5 μmol in 100 μL of PBS). Following injections, mice were imaged with an IVIS Spectrum.

[9] = Lipopolysaccharide inflammation model, H2O2 detection with PCL-2; type: in vivo, mice; settings: LPS 3 mg/kg IP 6 h before PCL-2 and D-cysteine 0.05 μmol each
Excerpt: as §4, §5
Unshaven, female FVB-luc^+ mice, aged 2-5 months, were anesthetized with isoflurane and injected IP with lipopolysaccharides (LPS, 3 mg/kg in 50 μL of saline) or saline (50 μL). For studies with PCL-2 alone, mice were injected IP with either apocynin (10 mg/kg in 20 μL of DMSO) or DMSO (20 μL) 6 h after LPS injection. […]

PC3M-luc cells [10] = assay: Signal produced from endogenous L-cysteine in PC3M-luc cells; type: cell-based; settings: HCBT alone 0-50 μM
Procedure: as §1
PC3M-luc cells prepared as described above were washed with HBSS (25 mM glucose) prior to addition of HCBT and D-cysteine (0-50 μM, 1% DMSO) or HCBT alone (0-50 μM, 1% DMSO) in HBSS (25 mM glucose). The plate was immediately imaged for 2 h to determine the peak bioluminescent signal produced.

FVB-luc^+ mice [11] = assay: Signal produced from endogenous L-cysteine in mice; type: in vivo; settings: HCBT 0.05 μmol IP without D-cysteine
Excerpt: as §4, §5
Unshaven, male FVB-luc+ mice were anesthetized with isoflurane and injected IP with D-cysteine (0.05 μmol, in 20 μL of PBS) or vehicle (20 μL PBS). After 2 min, mice were injected IP with HCBT (0.05 μmol in 50 μL of 1:1 DMSO:PBS). Following injections, mice were imaged with an IVIS Spectrum.

PC3M-luc cells [12] = assay: Lifetime of HCBT and D-cysteine in PC3M-luc cells; type: cell-based; settings: 100 μM, 30 min incubation, wash, complementary reagent after 0-60 min
Procedure: as §1
The medium was removed from PC3M-luc cells prepared as described above, and HCBT (100 μM, 1% DMSO) or D-cysteine (100 μM, 1% PBS) in DMEM (-FBS) was added. After a 30 min incubation, the HCBT or D-cysteine was removed, the cells were washed with DMEM (-FBS), and fresh DMEM was added. After 0, 15, 30, 45, or 60 min, the second component of luciferin, D-cysteine (100 μM final concentration, 1% PBS) or HCBT (100 μM final concentration, 1% DMSO) in HBSS (25 mM glucose) was added, and the plate was immediately imaged for 2 h to determine the peak bioluminescent signal produced.

Compound: O=C(O)[C@H]1CSC(c2nc3ccc(O)cc3s2)=N1 [luciferin]
- bioluminescent signal, luciferin versus HCBT/D-cysteine (PC3M-luc cells [1]; intact PC3M-luc cells, lower concentrations (0-500 μM range)): greater signal than HCBT/D-cysteine
- brightness of signal relative to 0.05 μmol HCBT/D-cysteine (FVB-luc^+ mice [2]): ca. 40 fold

Compound: N#Cc1nc2ccc(OCc3ccc(B(O)O)cc3)cc2s1 [PCL-2, 4-((2-Cyanobenzo[d]thiazol-6-yloxy)methyl)phenylboronic acid]
- increase in bioluminescence in the presence of H2O2 [3]: ca. 50 fold
- response to other ROS ([4]; 5 μM probe, ROS 100 μM (TBHP, hypochlorite, NO, OH, OtBu, O2-)): negligible response
- second-order rate constant k for the PCL-2 and H2O2 reaction [5]: 2.7 M⁻¹ s⁻¹
- range of linear response to H2O2 ([6]; PCL-2 5 μM, 60 min, aqueous solution): 1-100 μM H2O2
- detection limit for H2O2 ([6]; in vitro summary statement): low micromolar
- range of linear response to H2O2 in cellulo (PC3M-luc cells [7]): 0-100 μM H2O2
- Turn-on ([8]; H2O2 0.5 μmol, PCL-2 0.05 μmol): 2.8-fold
- detection limit for H2O2 in vivo ([8]; IP, FVB-luc^+ mice, optimized imaging conditions for each probe): ca. 0.5 μmol
- turn-on in response to LPS stimulation [9]: ca. 3.7 fold

Compound: N#Cc1nc2ccc(O)cc2s1 [HCBT, 2-Cyano-6-hydroxybenzothiazole]
- permeability across the cell membrane compared to luciferin (PC3M-luc cells [1]; inferred from intact versus lysed PC3M-luc cells): increased permeability
- bioluminescence from HCBT and endogenous L-cysteine compared to HCBT with D-cysteine (PC3M-luc cells [10]): negligible production of bioluminescence
- bioluminescent signal from HCBT and endogenous L-cysteine compared to D-cysteine present (FVB-luc^+ mice [11]): negligible
- cellular lifetime: signal as time between removal and addition of the complementary reagent increases (PC3M-luc cells [12]): decrease in luminescence
- bioluminescence turn-on with the same panel of ROS ([4]; HCBT 5 μM, ROS 100 μM incl. H2O2, 60 min): no bioluminescence turn-on
